pIC50: −log10 of the molar value. ≈ marks a conversion by molar mass, not a printed value. Like-named read-outs stand apart in the source and are kept apart here.
Assays:
[1] = Aqueous solubility in PBS, pH 7.4; assay type: physicochemical; conditions: for solubility at 24 h: phosphate buffered saline, pH 7.4, aqueous buffer, thermodynamic from solid, read-out: Aqu. Solubility
Protocol: Aqueous solubility of the compounds was determined by suspending excess solid (typically 0.3-0.5 mg) in PBS, pH 7.4, at a concentration of 0.5 mg/mL. The suspension was vortexed for 10-30 seconds to wet the material and stirred at 600 rpm for 24 hours. For analysis by UPLC, 150 μL aliquot sample was transferred into a […] PVDF spin filter and centrifuged at 14,000 rpm for 5 minutes. 100 μL of the filtrate was diluted with 100 μL 1:1 Acetonitrile (ACN):H2O. The resultant samples were analyzed using UPLC and quantified against a standard curve of the compound of interest dissolved in 1:1 ACN:H2O. The retains of the solids were checked by XRPD and PLM to determine if the phase of the material was crystalline or amorphous.

[2] = test system: HIV-1 wild-type (R8) virus; test: Viral KINetics in Green cells (VIKING) assay, HIV-1 replication in MT4-GFP reporter cells; assay type: cell-based
Outline: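 MT4-GFP cells infected overnight with HIV-1 R8 at MOI ~0.01, then added to compound plates in RPMI with 10% normal human serum; 10-point 3-fold dilutions (typically 4 μM-0.2 nM). Green cells counted at ~48 h and 72 h; reproductive ratio (72 h/48 h) gave % inhibition, IC50 by 4-parameter fit.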

[3] = pH 7.4 phosphate buffered saline, 24 hours, amorphous or crystalline material
[4] = Human immunodeficiency virus 1, 10% normal human serum, MT4-GFP cells, HIV-1 wild-type (R8), read-out: Viking (10% NHS), IC50

Row | Structure (SMILES) | solubility at 24 h [1, 3] [µg/mL] | pIC50 [2, 4] | also measured
1 | C#C[C@]1(CO)O[C@@H](n2ccc3c(N)nc(Cl)nc32)C[C@@H]1OC(=O)Cc1ccc(Cl)cc1 [Example 32, (2R,3S,5R)-5-(4-amino-2-chloro-7H-pyrrolo[2,3-d]pyrimidin-7-yl)-2-ethynyl-2-(hydroxymethyl)tetrahydrofuran-3-yl 2-(4-chlorophenyl)acetate] | 3.7 (≈ 8.02 µM) | 8.29 | –
2 | C#C[C@]1(CO)O[C@@H](n2ccc3c(N)nc(Cl)nc32)C[C@@H]1O [Compound A, (2R,3S,5R)-5-(4-amino-2-chloro-7H-pyrrolo[2,3-d]pyrimidin-7-yl)-2-ethynyl-2-(hydroxymethyl)tetrahydrofuran-3-ol, reference compound] | – | – | solubility ([1]; water, in water): 500 µg/mL (≈ 1620 µM); pIC50 ([2]; Human immunodeficiency virus 1, parent compound, read-out: IC50 in the Viking assay): 8.48
3 | C#C[C@]1(COC(=O)OCc2oc(=O)oc2C)O[C@@H](n2ccc3c(N)nc(Cl)nc32)C[C@@H]1OC(=O)OCc1oc(=O)oc1C [Example 53, ((2R,3S,5R)-5-(4-amino-2-chloro-7H-pyrrolo[2,3-d]pyrimidin-7-yl)-2-ethynyl-3-((((5-methyl-2-oxo-1,3-dioxol-4-yl)methoxy)carbonyl)oxy)tetrahydrofuran-2-yl)methyl ((5-methyl-2-oxo-1,3-dioxol-4-yl)methyl) carbonate] | < 1 | 8.77 | –
4 | C#C[C@]1(CO)O[C@@H](n2ccc3c(N)nc(Cl)nc32)C[C@@H]1OC(=O)OCCC12CC3CC(CC(C3)C1)C2 [Example 36, 2-(adamantan-1-yl)ethyl ((2R,3S,5R)-5-(4-amino-2-chloro-7H-pyrrolo[2,3-d]pyrimidin-7-yl)-2-ethynyl-2-(hydroxymethyl)tetrahydrofuran-3-yl) carbonate] | < 1 | 8.26 | –
5 | C#C[C@]1(CO)O[C@@H](n2ccc3c(N)nc(Cl)nc32)C[C@@H]1OC(=O)OCCCCCCCCCC [Example 10, (2R,3S,5R)-5-(4-amino-2-chloro-7H-pyrrolo[2,3-d]pyrimidin-7-yl)-2-ethynyl-2-(hydroxymethyl)tetrahydrofuran-3-yl decyl carbonate] | < 1 | 8.00 | –
6 | C#C[C@]1(COC(=O)OCCC23CC4CC(CC(C4)C2)C3)O[C@@H](n2ccc3c(N)nc(Cl)nc32)C[C@@H]1O [Example 35, 2-(adamantan-1-yl)ethyl (((2R,3S,5R)-5-(4-amino-2-chloro-7H-pyrrolo[2,3-d]pyrimidin-7-yl)-2-ethynyl-3-hydroxytetrahydrofuran-2-yl)methyl) carbonate] | < 1 | 8.21 | –
7 | C#C[C@]1(CO)O[C@@H](n2ccc3c(NC(=O)CCCCCCCCCCC)nc(Cl)nc32)C[C@@H]1O [Example 21, N-(2-chloro-7-((2R,4S,5R)-5-ethynyl-4-hydroxy-5-(hydroxymethyl)tetrahydrofuran-2-yl)-7H-pyrrolo[2,3-d]pyrimidin-4yl)dodecanamide] | < 1 | 7.74 | –
8 | C#C[C@]1(COC(=O)Cc2ccc(F)cc2)O[C@@H](n2ccc3c(N)nc(Cl)nc32)C[C@@H]1O [Example 37, ((2R,3S,5R)-5-(4-amino-2-chloro-7H-pyrrolo[2,3-d]pyrimidin-7-yl)-2-ethynyl-3-hydroxytetrahydrofuran-2-yl)methyl 2-(4-fluorophenyl)acetate] | 118 (≈ 265 µM) | 8.64 | –
9 | C#C[C@]1(COC(=O)CCCCCCCCCCCCCCC)O[C@@H](n2ccc3c(N)nc(Cl)nc32)C[C@@H]1O [Example 16, ((2R,3S,5R)-5-(4-amino-2-chloro-7H-pyrrolo[2,3-d]pyrimidin-7-yl)-2-ethynyl-3-hydroxytetrahydrofuran-2-yl)methyl palmitate] | < 1 | 8.25 | –
10 | C#C[C@]1(COC(=O)CCCCCCCCC)O[C@@H](n2ccc3c(N)nc(Cl)nc32)C[C@@H]1OC(=O)CC [Example 47, ((2R,3S,5R)-5-(4-amino-2-chloro-7H-pyrrolo[2,3-d]pyrimidin-7-yl)-2-ethynyl-3-(propionyloxy)tetrahydrofuran-2-yl)methyl decanoate] | < 1 | 7.47 | –
11 | C#C[C@]1(COCOC(=O)c2ccccc2)O[C@@H](n2ccc3c(N)nc(Cl)nc32)C[C@@H]1O [Example 51] | 309 (≈ 698 µM) | 8.66 | –
12 | C#C[C@]1(CO)O[C@@H](n2ccc3c(N)nc(Cl)nc32)C[C@@H]1OC(=O)CCCCCCC [Example 24, (2R,3S,5R)-5-(4-amino-2-chloro-7H-pyrrolo[2,3-d]pyrimidin-7-yl)-2-ethynyl-2-(hydroxymethyl)tetrahydrofuran-3-yl octanoate] | < 1 | 8.77 | –
13 | C#C[C@]1(COP(=O)(N[C@@H](C)C(=O)OC(C)C)Oc2ccc3ccccc3c2)O[C@@H](n2ccc3c(N)nc(Cl)nc32)C[C@@H]1O (stereo partly drawn) [Example 76] | – | – | Aqu. Solubility [1, 3]: 23 µg/mL; pIC50 ([2]; 10% normal human serum, MT4-GFP cells, HIV-1 wild-type (R8), read-out: Viking (10% NHS), IC50): 7.51

The next lines start with results.

Row | solubility at 24 h [1, 3] [µg/mL] | Structure (SMILES) | pIC50 [2, 4] | also measured
14 | 39 (≈ 95.9 µM) | C#C[C@]1(COC(=O)CCCCC)O[C@@H](n2ccc3c(N)nc(Cl)nc32)C[C@@H]1O [Example 116] | 8.38 | –
15 | < 1 | C#C[C@]1(CO)O[C@@H](n2ccc3c(NC(=O)CCCCCCCCC)nc(Cl)nc32)C[C@@H]1O [Example 197] | 7.54 | –
16 | < 1 | C#C[C@]1(CO)O[C@@H](n2ccc3c(N)nc(Cl)nc32)C[C@@H]1OC(=O)CCCc1ccccc1 [Example 60, (2R,3S,5R)-5-(4-amino-2-chloro-7H-pyrrolo[2,3-d]pyrimidin-7-yl)-2-ethynyl-2-(hydroxymethyl)tetrahydrofuran-3-yl 4-phenylbutanoate] | 8.46 | –
17 | 66 (≈ 150 µM) | C#C[C@]1(CO)O[C@@H](n2ccc3c(N)nc(Cl)nc32)C[C@@H]1OC(=O)OCCOC(C)=O [Example 156] | 8.49 | –
18 | < 1 | C#C[C@]1(COC(=O)CCCCCCCCCCC)O[C@@H](n2ccc3c(N)nc(Cl)nc32)C[C@@H]1O [Example 90] | 8.41 | –
19 | < 1 | C#C[C@]1(CO)O[C@@H](n2ccc3c(N)nc(Cl)nc32)C[C@@H]1OC(=O)CC1CCCCC1 [Example 177] | 8.07 | –
20 | 143 (≈ 327 µM) | C#C[C@]1(CO)O[C@@H](n2ccc3c(N)nc(Cl)nc32)C[C@@H]1OC(=O)CCCOC(C)=O [Example 178] | 8.42 | –
21 | 71 (≈ 155 µM) | C#C[C@]1(COC(=O)OCCc2ccccc2)O[C@@H](n2ccc3c(N)nc(Cl)nc32)C[C@@H]1O [Example 124] | 8.44 | –
22 | 5 (≈ 11.5 µM) | C#C[C@]1(COC(=O)CCCCCCC)O[C@@H](n2ccc3c(N)nc(Cl)nc32)C[C@@H]1O [Example 57, ((2R,3S,5R)-5-(4-amino-2-chloro-7H-pyrrolo[2,3-d]pyrimidin-7-yl)-2-ethynyl-3-hydroxytetrahydrofuran-2-yl)methyl octanoate] | 8.59 | –
23 | 1.2 (≈ 1.46 µM) | C#C[C@]1(COC(=O)OCCCCC[C@@H]2SC[C@@H]3NC(=O)N[C@@H]32)O[C@@H](n2ccc3c(N)nc(Cl)nc32)C[C@@H]1OC(=O)OCCCCC[C@@H]1SC[C@@H]2NC(=O)N[C@@H]21 [Example 207] | 7.68 | –
24 | < 1 | C#C[C@]1(COC(=O)CCC23CC4CC(CC(C4)C2)C3)O[C@@H](n2ccc3c(N)nc(Cl)nc32)C[C@@H]1O [Example 62, ((2R,3S,5R)-5-(4-amino-2-chloro-7H-pyrrolo[2,3-d]pyrimidin-7-yl)-2-ethynyl-3-hydroxytetrahydrofuran-2-yl)methyl 3-(adamantan-1-yl)propanoate] | 8.41 | –

— patent publication US20240287124A1, “PRODRUGS OF 4'-SUBSTITUTED NUCLEOSIDE REVERSE TRANSCRIPTASE INHIBITORS” (Merck Sharp & Dohme LLC, priority 2023, published 2024)
